# Source: patent US20240360107A1, “AN EIF4A INHIBITOR WITH A NOVEL MECHANISM OF ACTION” (ARIZONA BOARD OF REGENTS ON BEHALF OF THE UNIVERSITY OF …, priority 2021, published 2024)
# Entries after “also recorded” stand apart in the source; their conditions may differ. Where two headings read alike, the source gives them in different places.
# Assays:
# eIF4A [1] = target: T1, eIF4A (Homo sapiens, UniProt P60842); assay: RNA-stimulated malachite green ATPase assay; assay type: biochemical; set-up: 6xHis with TEV protease site (N, cleaved yes); made in house; host or cells: E. coli BL21-CodonPlus; conditions: for IC50: 750 nM eIF4A, 250 μM ATP, 0.25 mg/mL Yeast RNA, 4 h at 37° C.
# Protocol: Human eIF4A protein was produced recombinantly and a greater than 100,000-compound screen for inhibitors was completed using a malachite green ATPase assay (FIG. 11A). […] A stable mixture of yeast RNAs was added in an effort to improve this system and create a more biologically relevant eIF4A assay. eIF4A ATPase activity was accelerated without a statistically significant increase in the background signal in the presence of this RNA (FIG. 11B), and the new conditions gave excellent statistical parameters in a 384-well plate format (FIG. 11C).
# (§1) ATPase assay. Recombinant WT or mutant eIF4A was added to a clear bottom 384 well plate (Greiner) in ATPase buffer (20 mM Tris pH 7.4, 80 mM KCl, 2.5 mM MgCl2, 1 mM DTT, 1% glycerol). Compounds were added and the plate was incubated at 37° C. for 20 min. ATP/RNA solution was added to afford a 20 μL per well reaction volume with 750 nM eIF4A, 250 μM ATP, and 0.25 mg/mL Yeast RNA (Sigma) for the initial screen and dose responses, and varying concentrations of ATP and RNA for the kinetic assays. The plate was incubated for 4 h at 37° C. for the initial screen and dose responses, and at seven time points (1 hour-7 hours) for kinetic assays. 0.04% v/v (final concentration) Tween-20 was added to a Malachite Green solution, and the Malachite Green (40 μL per well) was added. The solution was incubated for 5 minutes at room temperature and Absorbance at 660 nm was read on a SpectraMax iD5 plate reader (Molecular Devices).
# [2] = system: BJAB Burkitt lymphoma cells; assay: CellTiter-Glo Luminescent Cell Viability assay; assay type: cell-based; conditions: 72 h; for effect on BJAB cell viability: top concentration 10 uM
# Protocol: Compounds 1 and compound 28 were evaluated in a CellTiter-Glo (CTG) Luminescence cell viability assay in BJAB Burkitt lymphoma cells that are known to be sensitive to eIF4A inhibition. This assay quantitates the number of living, metabolically active cells by measuring their ATP levels.
# Cell viability assay. BJAB lymphoma cells were plated in quadruplicate at 5,000 cells/well in serial dilutions of drug ranging two logs with the top concentration of compounds tested at 10 uM. Viability was measured after 72 h using Cell Titer Glo (Promega G7573) following the manufacturer's protocol. Luminescence was detected on the BioTek HT Synergy plate reader and values were normalized to vehicle-treated (DMSO) wells. Silvestrol was included as a positive control (not shown).
# eIF4A [3] = target: T1, eIF4A; assay: kinetic testing using the malachite green assay (ATP and RNA titration); assay type: biochemical; set-up: 6xHis with TEV protease site (N, cleaved yes); made in house; host or cells: E. coli BL21-CodonPlus; conditions: for Alpha value for ATP / Ki / Alpha value for RNA: mixed-model inhibition fit
# Protocol: ATP titration (left) used 250 μg/mL RNA. Data were fit using unbiased mixed-model inhibition in Prism 6.0. Alpha value for ATP is 0.424, indicating an ATP-uncompetitive inhibitor. Kiapp for ATP is 10.3 μM. RNA titration (right) used 250 μM ATP. […] Kiapp for RNA is 9.59 μM. Data shown are an average of 3 independent experiments.
# ATP titration (left) was done with 250 μg/mL RNA. Data were fit using unbiased mixed-model inhibition in Prism 6.0. Alpha value for ATP is 0.514, indicating an ATP-uncompetitive inhibitor. Kiapp for ATP=4.79 μM. RNA titration (right) was done with 250 μM ATP. […] Kiapp for RNA=4.27 μM. Data shown are an average of 3 independent experiments.
# as §1
# eIF4A [4] = target: T1, eIF4A; assay: FAM-RNA fluorescence polarization assay; assay type: binding; set-up: 6xHis with TEV protease site (N, cleaved yes); made in house; host or cells: E. coli BL21-CodonPlus; conditions: FAM-A(CAA)5 RNA; for IC50: 2 μM eIF4A, read-out: IC50, FAM-RNA FP assay
# Protocol: Next, an FP assay was performed with a fluorescent, eIF4A-binding RNA oligo (FAM-A(CAA)5) as the fluorophore. […] This same assay was used to investigate if changing the identity of the RNA fluorophore affected the ability of compound 28 to compete the RNA off eIF4A. […] This is evidence that compound 28 inhibits the RNA-eIF4A interaction by binding eIF4A and not the RNA.
# FAM-RNA fluorescence polarization assay. Oligos were purchased from Integrated DNA Technologies using RNase free preparations. Recombinant eIF4A (2 μM) was incubated with 25 nM FAM-labelled RNA for 30 min in FP Buffer (15 mM HEPES-NaOH (pH 8), 100 mM NaCl, 1 mM MgCl2, 15% glycerol, 2 mM DTT, 2 mM AMPPNP) at 22° C. in low-volume black 384 well plates (Greiner). eIF4A was incubated with compound for 20 min prior to the addition of FAM-RNA. Plate was incubated for another 30 min before fluorescence polarization was read at 485:535 nm (Ex:Em) on a SpectraMax iD5 plate reader (Molecular Devices. IC50 values were calculated using GraphPad Prism v6.0.
# [5] = ATP titration, 250 μg/mL RNA, read-out: Kiapp for ATP
# [6] = RNA titration, 250 μM ATP, read-out: Kiapp for RNA
# T1 sequence (P60842 whole entry): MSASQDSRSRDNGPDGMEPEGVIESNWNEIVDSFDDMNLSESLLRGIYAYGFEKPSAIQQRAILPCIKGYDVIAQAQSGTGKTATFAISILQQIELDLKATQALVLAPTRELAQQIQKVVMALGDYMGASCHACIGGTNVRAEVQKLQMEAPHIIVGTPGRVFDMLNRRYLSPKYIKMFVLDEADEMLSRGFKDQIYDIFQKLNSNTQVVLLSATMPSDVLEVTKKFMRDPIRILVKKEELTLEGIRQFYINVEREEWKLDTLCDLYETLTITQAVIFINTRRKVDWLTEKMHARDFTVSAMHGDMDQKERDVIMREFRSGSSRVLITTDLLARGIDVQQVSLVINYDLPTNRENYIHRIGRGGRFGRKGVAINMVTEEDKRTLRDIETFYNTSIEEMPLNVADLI
SMILES,IC50 (eIF4A [1]),potency in the eIF4A ATPase assay (in words) (eIF4A [1]; comparison within the series),effect on BJAB cell viability [2],mechanism of inhibition with respect to ATP (eIF4A [3]),mechanism of inhibition with respect to RNA (eIF4A [3]),"Alpha value for ATP (eIF4A [3]; ATP titration, 250 μg/mL RNA)",Ki (eIF4A [3]; [5]),"Alpha value for RNA (eIF4A [3]; RNA titration, 250 μM ATP)",Ki (eIF4A [3]; [6]),competition of fluorescent RNA off eIF4A (eIF4A [4]),IC50 (eIF4A [4]),"EC50 ([2]; Homo sapiens, CellTiter-Glo, n=4)"
"CCCCc1ccc(-c2ccc(-c3cc(C(=O)O)c4cc([N+](=O)[O-])ccc4n3)o2)cc1 [Compound 28, 2-(5-(4-butylphenyl)furan-2-yl)-6-nitroquinoline-4-carboxylic acid]",8.6 ± 0.944 µM,most potent inhibitor of eIF4A ATPase activity; also recorded: over two-fold more potent than any other molecule previously produced in the series,three to four times more potent than 1; also recorded: decrease BJAB cell viability,ATP-uncompetitive,RNA-competitive,0.514,4.79 µM,4.52×10^21,4.27 µM,able to compete the fluorescent RNA off of eIF4A; also recorded: about three-fold more potent than 1,58.3 ± 2.5 µM,–
"CCCCc1ccc(-c2ccc(-c3cc(C(=O)O)c4cc(Br)ccc4n3)o2)cc1 [Compound 1, 6-bromo-2-(5-(4-butylphenyl)furan-2-yl)quinoline-4-carboxylic acid]",26.6 ± 2.46 µM,–,decrease BJAB cell viability,uncompetitive with respect to ATP,RNA-competitive,0.424,10.3 µM,4.53×10^13,9.59 µM,able to compete the fluorescent RNA off of eIF4A,161 ± 9.8 µM,2.13 ± 0.17 µM
